Patent US20170226139A1, “CRYSTALLINE SALTS OF (Z)-O-OCTADEC-9-EN-1-YL O,O-DIHYDROGEN PHOSPHOROTHIOATE” (priority 2013, published 2017)

Assays:
Control CHO = experiment: Calcium-mobilization assay, untransfected Control CHO cells; assay type: cell-based, Chinese hamster; conditions: Cricetulus griseus, CHO
Protocol: (§1) We investigated structure-activity relationships across species, LPAR subtypes and between Rx100 and two known process impurities encountered in manufacture: Rx103 (‘E’ isomer) and Rx200 (oleyl phosphate and impurity, which can be an Rx100 degradant along with oleyl alcohol). Rx100, Rx103, Rx200 and native LPA were investigated at different human LPAR subtypes. In addition, the activity of these compounds was evaluated at LPA2 receptors from the rhesus, rat and mouse species. Human LPA1/2/3 subtypes were transfected into mouse embryonic fibroblasts (MEF) or rat hepatoma cells (RH7777)—both of which are normally non-responsive or null to LPA. Human LPA4 was transfected into Chinese hamster ovary (CHO) cells and LPA5 into the B103 neuroblastoma cell line. […] The B103 rat neuroblastoma cell line is endogenously nonresponsive to LPA but expresses heterologous LPA5 receptors well. […] LPAR activation elicits a G-protein-mediated transient rise in intracellular calcium level that is proportional to the concentration of LPA applied. The intracellular calcium level was quantified by the calcium-selective fluorescent indicator FURA-2 (e.g., increased intracellular calcium surge=increased fluorescence).

[1] = molecular target: LPA2 receptors from the rat (Rattus norvegicus, UniProt A0ABK0LT65); experiment: Calcium-mobilization assay (FURA-2), rat LPA2; assay type: cell-based
Chain of LPA2 receptors from the rat (A0ABK0LT65 1-348): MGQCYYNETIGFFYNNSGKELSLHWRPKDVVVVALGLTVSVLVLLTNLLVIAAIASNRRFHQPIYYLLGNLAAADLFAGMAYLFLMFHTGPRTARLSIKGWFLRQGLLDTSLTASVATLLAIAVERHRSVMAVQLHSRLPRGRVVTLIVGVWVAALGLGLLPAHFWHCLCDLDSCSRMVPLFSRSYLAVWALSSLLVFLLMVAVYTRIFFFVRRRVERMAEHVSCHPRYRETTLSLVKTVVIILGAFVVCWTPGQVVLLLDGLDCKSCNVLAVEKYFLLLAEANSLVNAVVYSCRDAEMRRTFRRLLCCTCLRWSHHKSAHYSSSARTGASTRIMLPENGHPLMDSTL
Protocol: as §1

Male Sprague-Dawley rats = experiment: Gastrointestinal system safety pharmacology (charcoal transit, gastric emptying); assay type: in vivo
Protocol: Male Sprague-Dawley rats (n=6/group) were administered Rx100.lysine as a single oral (gavage) doses of 0 (10 mM histidine in sterile water for Injection, USP), 1.81, 6.33, and 18.1 mg/kg and monitored for gastrointestinal parameters of transit time and gastric emptying. A fifth group was treated with the positive control material morphine sulfate. Two hours after treatment, animals received an oral gavage dose of a charcoal suspension. Animals were then sacrificed 20 minutes. Parameters evaluated included gastrointestinal transit time and gastric emptying. […] No abnormal observations were recorded. […] It was concluded that there were no adverse effects on the gastrointestinal tract in rats at doses of 1.81 mg/kg (gastric emptying) or 6.33 mg/kg (transit time).

[2] = Rx100 salt screening (solid formation, XRPD wet/dry, filterability, exposure to RH > 90%)
Protocol: We designed a complex and unconventional screening regime to screen for Rx100 crystalline salts. […] The screening regime is described as follows.
Rx100.FA in the form of a viscous liquid and eighteen counter ions were used as starting materials. These counter ions are listed and numbered in Table 4. The numbers will be used for grouping the resulting solids. The screening was performed in three stages.
Stage one (1) included screening 11 counter ions: sodium hydroxide, ammonium hydroxide, ethylenediamine, diethylamine, tromethamine (Tris), hydroxyethyl morpholine, benzathine, dimethylamino ethanol, L-Arginine, L-Lysine, L-Histidine. […] In stage 1, we performed three rounds of experiment.
In the first round of experiment, four (4) solvent systems, i.e., isopropyl alcohol (IPA), diethyl ether (DEE), IPA:water (a mixture at a volume ratio of 95:5) and tetrahydrofuran (THF), were used. Thus in this first round of screening, 44 individual base-acid reactions were conducted in 44 vials.
First, Rx100.FA and each of the bases were mixed in a vial. […] In each of the 44 vials, 211.1 μL of the prepared liquid, which was equivalent to about 35 mg of Rx100.FA, was first dispensed. Then, one equivalent (molar) of each of the 11 bases was dispensed in its corresponding vial. For example, the base sodium hydroxide was added to vials 1, 12, 23 and 34. Similarly, L-histidine was added to vials 11, 22, 33 and 44. Observations were recorded upon addition of the bases in to Rx100.FA.
Second, the solvent in each mixture was depleted. All vials containing the mixtures of Rx100.FA and each of the bases were left under moderate vacuum and nitrogen bleed at room temperature overnight to evaporate the solvent. The vials were then kept under full vacuum for about an hour to make sure the solvents (ethanol and water) are evaporated. Observations on formation of solid upon evaporation were recorded.
Third, solvents were added in each vial to induce solid formation. In each vial, a stir bar and one of the four selected solvents (each 5 volumes with respect to the Rx100.FA) were added. The vials were then capped. IPA was added to the first set of 11 vials (1-11), DEE added to the second set of 11 vials (12-22), IPA:water added to the third set of 11 vials (23-33), and THF added to the fourth set of 11 vials (34-44). The vials were left at room temperature while stirring for at least 5 hours. Observations were recorded.
The first set of XRPD analyses were recorded as “wet” samples. The solids were dried under vacuum for 1 hour and at room temperature followed by XRPD as “dry” sample. The dry solid was then exposed to relative humidity of more than 90% overnight followed by XRPD analysis. For XRPD naming, a number and a letter were used. The number refers to the counter ion and the letter refers to the chronological discovered XRPD pattern of that particular salt.
In the second round of experiment of stage one, another four (4) solvent systems, i.e., methanol (MeOH), tert-Butyl methyl ether (tBME), ethyl acetate and toluene, were used in the same 44 vials as used in the first round experiment. The solvents in all 44 vials from the first round were evaporated to dryness under vacuum and nitrogen bleed. The 4 new solvents were then added into the vials. Methanol was added to the first set of 11 vials (1-11), tBME added to the second set of 11 vials (12-22), Ethyl acetate added to the third set of 11 vials (23-33), and Toluene added to the fourth set of 11 vials (34-44). The same procedure as in the first round of experiment was followed for these new solvents and samples were taken for XRPD analysis.
In the third round of experiment, effect of base equivalence was assessed. […] After addition of the extra base, the previous solvent was evaporated and new solvents added.

[3] = male, Sprague-Dawley, rat, in vivo, oral, 140 min

| SMILES | EC50 (Control CHO) | Emax (Control CHO; read-out: Emax (% of LPA)) | EC50 [1] | Emax ([1]; read-out: Emax (% of LPA)) | gastric emptying (Male Sprague-Dawley rats; 6.33 and 18.1 mg/kg, statistically significant only at 6.33 mg/kg) | dose with no adverse effects on gastric emptying (Male Sprague-Dawley rats; [3]) | dose with no adverse effects on transit time (Male Sprague-Dawley rats; [3]) | intestinal transit time (Male Sprague-Dawley rats; only at 18.1 mg/kg) | Stability at high humidity [2] | Crystallinity ([2]; Rx100 salt formed with the named base, XRPD, listed as Rx100.L-Lysine salt) | Filterability ([2]; Rx100 salt formed with the named base, listed as Rx100.L-Lysine salt) |
| --- | --- | --- | --- | --- | --- | --- | --- | --- | --- | --- | --- |
| CCCCCCCC/C=C\CCCCCCCCOP(O)(O)=S [Rx100, (Z)—O-octadec-9-en-1-yl O,O-dihydrogen phosphorothioate] | > 5000 nM | 20% | 76 nM | 100% |  |  |  |  |  |  |  |
| CCCCCCCC/C=C\CCCCCCCCOP(O)(O)=S [Rx100.L-Lysine, (Z)—O-octadec-9-en-1-yl O,O-dihydrogen phosphorothioate] |  |  |  |  | inhibited | 1.81 mg/kg | 6.33 mg/kg | increased | stable at high humidity | showed crystallinity | filterable |
